The values that follow are results of earlier work, collected in US8513439B2, “Antidepressant oral pharmaceutical compositions” (Wockhardt Limited, priority 2005, dated 2013).

One data set relates to adrenergic receptors. The conditions noted are these: in vitro.
In the next data set the test system is cholinergic receptors. The note with it: in vitro.
The test system of the next data set is histaminergic receptors. The note with it: in vitro.
For data set [1] the following is noted: in vivo.
A further data set concerns dopaminergic receptors. The note with it: in vitro.

Take `CNCC[C@H](Oc1cccc2ccccc12)c1cccs1` [Duloxetine, (S)—N-methyl-3-(1-naphthyloxy)-3-(2-thienyl)propan-1-amine]: the “affinity for adrenergic receptors” value in the data set on adrenergic receptors is “no significant affinity”. For the same compound, the “affinity for cholinergic receptors” value in the data set on cholinergic receptors is “no significant affinity”. Further, the “dosage hydrolyzed to 1-naphthol” value (pH of 1.0, within one hour) is on record as 50%. For the same compound, the “dosage degraded to 1-Naphthol” value (pH of 2.0, in one hour) is reported as 10%. Moreover, under “pH of 4.0”, the “time for 10% degradation” value is “up to 63 hours”. The “affinity for histaminergic receptors” value in the data set on histaminergic receptors is recorded as “no significant affinity”. Also, in data set [1], the “enzymes metabolizing to inactive metabolites in the liver” value was “CYP1A2 and CYP2D6”; the protein bound is over 90%. Further, the “inhibition of monoamine oxidase (MAO)” value in the data set on monoamine oxidase (MAO) was “does not inhibit”. Further, in the data set with dopaminergic receptors, the “affinity for dopaminergic receptors” value is listed as “no significant affinity”.
